Measurements: ChEMBL document CHEMBL1129809, “N-linked glycoside/glucuronide conjugates of retinoids: acitretin” (1997)

How the values were obtained:
Type in all cases: functional, Homo sapiens
MCF7 [1] = assay: Antiproliferative activity on MCF-7 Cell Growth was determined by measuring [3H]thymidine incorporation at the concentration of 0.1 nM
MCF7 [2] = assay: Antiproliferative activity on MCF-7 Cell Growth was determined by measuring [3H]thymidine incorporation at the concentration of 10 nM
MCF7 [3] = assay: Antiproliferative activity on MCF-7 Cell Growth was determined by measuring [3H]thymidine incorporation at the concentration of 1 uM

| SMILES | Control (MCF7 [1]) [%] | Control (MCF7 [2]) [%] | Control (MCF7 [3]) [%] |
| --- | --- | --- | --- |
| COc1cc(C)c(/C=C/C(C)=C/C=C/C(C)=C/C(=O)NC2OC(C(=O)O)C(O)C(O)C2O)c(C)c1C (centres undefined) | <50 | >50 | <50 |
| COc1cc(C)c(/C=C/C(C)=C/C=C/C(C)=C/C(=O)O)c(C)c1C [ACITRETIN] | >50 | >50 | <50 |
| COc1cc(C)c(/C=C/C(C)=C/C=C/C(C)=C/C(=O)NC2OC(CO)C(O)C(O)C2O)c(C)c1C (centres undefined) | >50 | >100 | >100 |
